Experimental data reported in ChEMBL document CHEMBL1201862, “PubChem BioAssay data set” (2004).
Values belong to the compound of their own block, whether it stands above or below them. Calls of active or inactive are those of the source.

Legend:
[1] = biological target: Voltage-dependent T-type calcium channel subunit alpha-1H (Homo sapiens, UniProt O95180); experiment: Cav3.2 T-type channel inhibitors, synthesized analogs, SAR follow-up, cell-based, synthetic library set 2, HEK293 HH8, Fluo-4 (AID 493023); assay type: functional
Ion channel NompC = Ion channel NompC (Danio rerio, UniProt Q7T1G6); experiment: Dose response cell-based high-throughput screening assay for agonists of the transient receptor potential channel N1 (TRPN1). [Related pubchem assays (depositor defined):AID1424, AID1448]; assay type: functional
Ion channel NompC, sequence (Q7T1G6 whole entry): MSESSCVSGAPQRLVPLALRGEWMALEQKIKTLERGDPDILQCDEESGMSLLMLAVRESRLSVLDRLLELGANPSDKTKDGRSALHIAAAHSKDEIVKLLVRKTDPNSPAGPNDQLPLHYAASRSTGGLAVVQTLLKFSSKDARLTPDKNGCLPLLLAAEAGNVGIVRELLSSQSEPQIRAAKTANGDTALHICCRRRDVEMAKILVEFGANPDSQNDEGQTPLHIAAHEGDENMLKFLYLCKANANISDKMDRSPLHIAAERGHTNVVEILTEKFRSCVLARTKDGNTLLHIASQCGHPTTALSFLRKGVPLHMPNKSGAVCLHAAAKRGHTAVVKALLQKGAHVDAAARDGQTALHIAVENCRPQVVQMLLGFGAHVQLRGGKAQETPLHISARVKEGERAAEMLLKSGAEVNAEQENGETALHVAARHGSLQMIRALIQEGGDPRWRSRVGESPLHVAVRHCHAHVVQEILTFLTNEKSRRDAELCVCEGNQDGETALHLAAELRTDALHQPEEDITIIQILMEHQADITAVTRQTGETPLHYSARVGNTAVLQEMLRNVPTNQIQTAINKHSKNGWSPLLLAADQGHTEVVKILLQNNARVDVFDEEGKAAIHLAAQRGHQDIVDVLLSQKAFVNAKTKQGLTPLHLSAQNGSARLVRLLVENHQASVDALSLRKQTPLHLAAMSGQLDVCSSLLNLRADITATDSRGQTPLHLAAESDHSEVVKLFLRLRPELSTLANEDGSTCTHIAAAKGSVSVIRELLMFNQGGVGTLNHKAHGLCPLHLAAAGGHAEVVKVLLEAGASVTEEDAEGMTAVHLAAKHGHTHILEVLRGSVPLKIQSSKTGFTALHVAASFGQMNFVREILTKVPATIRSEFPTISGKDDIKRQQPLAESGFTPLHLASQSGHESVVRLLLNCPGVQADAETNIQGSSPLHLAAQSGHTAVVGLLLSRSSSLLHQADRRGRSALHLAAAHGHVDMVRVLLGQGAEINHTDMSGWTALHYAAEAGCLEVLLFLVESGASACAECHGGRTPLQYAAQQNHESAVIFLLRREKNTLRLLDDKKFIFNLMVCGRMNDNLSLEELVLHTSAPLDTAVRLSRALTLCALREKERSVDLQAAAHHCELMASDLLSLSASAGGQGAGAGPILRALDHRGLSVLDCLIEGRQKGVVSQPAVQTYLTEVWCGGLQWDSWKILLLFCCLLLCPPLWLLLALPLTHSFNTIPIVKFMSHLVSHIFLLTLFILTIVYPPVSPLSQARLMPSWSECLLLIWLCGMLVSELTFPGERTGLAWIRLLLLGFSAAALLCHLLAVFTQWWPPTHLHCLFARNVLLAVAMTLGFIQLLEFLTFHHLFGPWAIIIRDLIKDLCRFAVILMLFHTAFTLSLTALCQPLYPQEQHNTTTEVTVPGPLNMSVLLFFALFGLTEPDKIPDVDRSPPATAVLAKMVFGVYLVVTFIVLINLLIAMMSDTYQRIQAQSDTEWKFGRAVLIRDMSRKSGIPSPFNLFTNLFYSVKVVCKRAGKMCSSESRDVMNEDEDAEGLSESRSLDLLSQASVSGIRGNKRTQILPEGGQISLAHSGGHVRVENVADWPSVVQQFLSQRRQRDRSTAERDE

Mucolipin-3 = Mucolipin-3 (Homo sapiens, UniProt Q8TDD5); experiment: Fluorescence counterscreen assay for […] agonists: dose response cell-based high-throughput screening assay to identify agonists of the transient receptor potential channel ML3 (TRPML3). [Related pubchem assays: 1424, 1448 ]; assay type: functional
Mucolipin-3, sequence (Q8TDD5 whole entry): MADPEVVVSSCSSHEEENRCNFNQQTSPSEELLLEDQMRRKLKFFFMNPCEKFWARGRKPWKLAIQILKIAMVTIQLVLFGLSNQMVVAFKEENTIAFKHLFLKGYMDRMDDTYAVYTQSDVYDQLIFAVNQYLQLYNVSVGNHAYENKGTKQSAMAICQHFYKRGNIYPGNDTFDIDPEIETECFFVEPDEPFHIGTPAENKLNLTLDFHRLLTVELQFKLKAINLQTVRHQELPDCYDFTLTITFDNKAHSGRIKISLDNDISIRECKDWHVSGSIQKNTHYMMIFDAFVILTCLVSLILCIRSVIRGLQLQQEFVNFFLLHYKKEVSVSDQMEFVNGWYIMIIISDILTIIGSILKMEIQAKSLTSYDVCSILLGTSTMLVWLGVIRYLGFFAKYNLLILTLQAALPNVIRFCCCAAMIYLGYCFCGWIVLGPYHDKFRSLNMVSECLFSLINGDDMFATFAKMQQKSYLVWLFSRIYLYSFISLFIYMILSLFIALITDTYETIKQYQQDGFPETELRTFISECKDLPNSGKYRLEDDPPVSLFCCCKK

[2] = cytotoxicity in HEK-293T cells, dose response, cytotoxicity control for TCR NF-kB inhibitor project, luminescence, T-cell screen hits (AID 489026); assay type: functional, cell-based;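 also: cells exposed to compound about 14 hours before the viability readout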
[3] = biological target: Sphingosine 1-phosphate receptor 5 (Homo sapiens, UniProt Q9H228); experiment: Late stage counterscreen assay for S1P4 antagonists: Fluorescence dose response cell-based screening assay for antagonists of the Sphingosine 1-Phosphate Receptor 5 (S1P5). [Related pubchem assays (depositor defined):AID1510, AID1524, AID1692, AID1853, AID2332, AID489009, AID489017]; assay type: functional
Sphingosine 1-phosphate receptor 5, sequence (Q9H228 whole entry): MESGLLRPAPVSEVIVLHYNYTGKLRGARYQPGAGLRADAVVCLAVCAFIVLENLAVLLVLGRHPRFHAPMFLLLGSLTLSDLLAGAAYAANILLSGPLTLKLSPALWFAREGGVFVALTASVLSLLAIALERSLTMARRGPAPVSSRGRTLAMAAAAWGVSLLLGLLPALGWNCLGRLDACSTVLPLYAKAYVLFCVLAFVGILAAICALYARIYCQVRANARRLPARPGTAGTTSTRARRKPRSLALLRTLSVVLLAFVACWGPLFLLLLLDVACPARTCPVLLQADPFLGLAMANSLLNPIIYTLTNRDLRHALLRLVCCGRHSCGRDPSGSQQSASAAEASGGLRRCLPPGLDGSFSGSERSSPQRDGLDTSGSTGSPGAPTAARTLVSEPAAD

[4] = biological target: Sphingosine 1-phosphate receptor 3 (Homo sapiens, UniProt Q99500); experiment: Late stage counterscreen assay for S1P4 antagonists: Fluorescence dose response cell-based screening assay for antagonists of the Sphingosine 1-Phosphate Receptor 3 (S1P3). [Related pubchem assays (depositor defined):AID1510, AID1524, AID1692, AID1853, AID2332, AID489009, AID489017]; assay type: functional
Sphingosine 1-phosphate receptor 3, sequence (Q99500 whole entry): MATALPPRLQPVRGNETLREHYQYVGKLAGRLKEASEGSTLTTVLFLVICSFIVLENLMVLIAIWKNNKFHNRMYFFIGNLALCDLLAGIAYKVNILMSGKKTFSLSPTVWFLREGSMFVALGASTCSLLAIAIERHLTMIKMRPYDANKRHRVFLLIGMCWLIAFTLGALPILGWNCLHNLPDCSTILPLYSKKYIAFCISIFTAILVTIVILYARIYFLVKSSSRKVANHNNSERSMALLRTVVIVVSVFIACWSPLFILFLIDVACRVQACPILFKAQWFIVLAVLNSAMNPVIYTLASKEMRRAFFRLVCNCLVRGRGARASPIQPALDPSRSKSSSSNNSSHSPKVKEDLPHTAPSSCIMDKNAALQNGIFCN

[5] = biological target: Sphingosine 1-phosphate receptor 1 (Homo sapiens, UniProt P21453); experiment: Late stage counterscreen assay for S1P4 antagonists: Fluorescence dose response cell-based screening assay for antagonists of the Sphingosine 1-Phosphate Receptor 1 (S1P1). [Related pubchem assays (depositor defined):AID1510, AID1524, AID1692, AID1853, AID2332, AID489009, AID489017]; assay type: functional
Sphingosine 1-phosphate receptor 1, sequence (P21453 whole entry): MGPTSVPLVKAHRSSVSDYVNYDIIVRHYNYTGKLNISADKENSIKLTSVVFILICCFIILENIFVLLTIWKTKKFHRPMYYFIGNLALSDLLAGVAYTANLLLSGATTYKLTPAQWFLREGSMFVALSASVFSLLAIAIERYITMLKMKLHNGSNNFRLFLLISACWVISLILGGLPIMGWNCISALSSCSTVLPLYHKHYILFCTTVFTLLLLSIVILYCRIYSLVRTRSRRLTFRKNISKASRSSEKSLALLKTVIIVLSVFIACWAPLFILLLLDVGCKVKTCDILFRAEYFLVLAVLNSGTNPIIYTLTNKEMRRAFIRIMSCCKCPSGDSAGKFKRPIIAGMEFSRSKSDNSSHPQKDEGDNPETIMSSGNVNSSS

[6] = biological target: Sphingosine 1-phosphate receptor 2 (Homo sapiens, UniProt O95136); experiment: Late stage counterscreen assay for S1P4 antagonists: Fluorescence dose response cell-based screening assay for antagonists of the Sphingosine 1-Phosphate Receptor 2 (S1P2). [Related pubchem assays (depositor defined):AID1510, AID1524, AID1692, AID1853, AID2332, AID489009, AID489017]; assay type: functional
Sphingosine 1-phosphate receptor 2, sequence (O95136 whole entry): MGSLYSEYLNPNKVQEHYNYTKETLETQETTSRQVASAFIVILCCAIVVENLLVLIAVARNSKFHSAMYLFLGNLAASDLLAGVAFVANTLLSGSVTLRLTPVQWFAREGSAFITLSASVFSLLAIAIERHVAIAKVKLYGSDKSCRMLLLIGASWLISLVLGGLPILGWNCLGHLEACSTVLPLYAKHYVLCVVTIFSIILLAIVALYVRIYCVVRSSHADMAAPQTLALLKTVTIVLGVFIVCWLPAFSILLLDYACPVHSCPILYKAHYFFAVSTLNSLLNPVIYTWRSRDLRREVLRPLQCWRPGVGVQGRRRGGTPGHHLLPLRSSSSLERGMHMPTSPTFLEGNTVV

BJ [7] = experiment: cytotoxicity toward BJ-TERT-LT-ST fibroblasts, dose response, cell-based, RAS-independent, luminescence (AID 1935); assay type: functional; conditions: Homo sapiens;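 also: BJ fibroblasts immortalized with TERT plus LT and ST oncogenes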
BJ [8] = experiment: cells; assay type: functional, cell-based; conditions: Homo sapiens
[9] = biological target: DNA damage-inducible transcript 3 protein (Mus musculus, UniProt P35639); assay type: functional, Cricetulus griseus
DNA damage-inducible transcript 3 protein, sequence (P35639 whole entry): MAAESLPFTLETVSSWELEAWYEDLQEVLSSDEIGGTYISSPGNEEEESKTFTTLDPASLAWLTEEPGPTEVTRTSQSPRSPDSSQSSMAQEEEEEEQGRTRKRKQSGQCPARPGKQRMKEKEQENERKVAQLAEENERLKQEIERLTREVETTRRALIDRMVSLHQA

BJ [10] = experiment: cytotoxicity toward BJ-TERT fibroblasts, dose response, cell-based, RAS-independent, luminescence (AID 1933); assay type: functional; conditions: Homo sapiens
[11] = biological target: FAD-linked sulfhydryl oxidase ALR (Homo sapiens, UniProt P55789); experiment: inhibitors of human ALR sulfhydryl oxidase, dose response, biochemical, H2O2 detection, luminescence, cherry-pick (AID 493248)
FAD-linked sulfhydryl oxidase ALR, sequence (P55789 whole entry): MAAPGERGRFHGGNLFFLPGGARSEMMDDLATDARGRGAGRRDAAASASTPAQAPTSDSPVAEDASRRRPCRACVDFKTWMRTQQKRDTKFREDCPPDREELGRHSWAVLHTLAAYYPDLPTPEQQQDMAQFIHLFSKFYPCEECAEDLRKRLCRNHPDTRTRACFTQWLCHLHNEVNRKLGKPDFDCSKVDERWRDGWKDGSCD

[12] = cytotoxicity toward DRD oncogenic fibroblasts, dose response, cell-based, non-viral oncogenic, luminescence (AID 1934); assay type: functional; conditions: Homo sapiens
HEK293 = experiment: SAR analysis of compounds that are cytotoxic to HEK293 - Set 3. [Related pubchem assays (depositor defined):AID1575, AID1578, AID1848, AID1849, AID2001, AID2333, AID2334, AID2335, AID2337, AID2469]; assay type: functional, cell-based; conditions: Homo sapiens
[13] = biological target: Nucleotide-binding oligomerization domain-containing protein 2 (Homo sapiens, UniProt Q9HC29); experiment: NOD2 signaling inhibitors, analog potency, SAR follow-up, cell-based, set 3 (AID 2799); assay type: functional
Tumor necrosis factor = Tumor necrosis factor (Homo sapiens, UniProt P01375); experiment: TNFa-triggered NF-kB activation inhibitors, SAR follow-up, cell-based, set 3 (AID 2801); assay type: functional
Tumor necrosis factor, sequence (P01375 whole entry, the tested form may be a part): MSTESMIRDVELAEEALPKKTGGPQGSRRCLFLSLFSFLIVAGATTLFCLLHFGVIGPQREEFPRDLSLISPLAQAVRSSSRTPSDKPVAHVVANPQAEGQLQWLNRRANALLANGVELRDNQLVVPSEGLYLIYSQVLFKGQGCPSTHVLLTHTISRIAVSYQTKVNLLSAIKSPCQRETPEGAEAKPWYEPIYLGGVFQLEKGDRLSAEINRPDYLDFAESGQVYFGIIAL

[14] = biological target: T1, Nucleotide-binding oligomerization domain-containing protein 1 (Homo sapiens, UniProt Q9Y239); experiment: SAR analysis of compounds that inhibit NOD1 - Set 3. [Related pubchem assays (depositor defined):AID1566, AID1575, AID1578, AID1849, AID1852, AID2333, AID2335, AID2466]; assay type: functional
T1 sequence (Q9Y239 whole entry): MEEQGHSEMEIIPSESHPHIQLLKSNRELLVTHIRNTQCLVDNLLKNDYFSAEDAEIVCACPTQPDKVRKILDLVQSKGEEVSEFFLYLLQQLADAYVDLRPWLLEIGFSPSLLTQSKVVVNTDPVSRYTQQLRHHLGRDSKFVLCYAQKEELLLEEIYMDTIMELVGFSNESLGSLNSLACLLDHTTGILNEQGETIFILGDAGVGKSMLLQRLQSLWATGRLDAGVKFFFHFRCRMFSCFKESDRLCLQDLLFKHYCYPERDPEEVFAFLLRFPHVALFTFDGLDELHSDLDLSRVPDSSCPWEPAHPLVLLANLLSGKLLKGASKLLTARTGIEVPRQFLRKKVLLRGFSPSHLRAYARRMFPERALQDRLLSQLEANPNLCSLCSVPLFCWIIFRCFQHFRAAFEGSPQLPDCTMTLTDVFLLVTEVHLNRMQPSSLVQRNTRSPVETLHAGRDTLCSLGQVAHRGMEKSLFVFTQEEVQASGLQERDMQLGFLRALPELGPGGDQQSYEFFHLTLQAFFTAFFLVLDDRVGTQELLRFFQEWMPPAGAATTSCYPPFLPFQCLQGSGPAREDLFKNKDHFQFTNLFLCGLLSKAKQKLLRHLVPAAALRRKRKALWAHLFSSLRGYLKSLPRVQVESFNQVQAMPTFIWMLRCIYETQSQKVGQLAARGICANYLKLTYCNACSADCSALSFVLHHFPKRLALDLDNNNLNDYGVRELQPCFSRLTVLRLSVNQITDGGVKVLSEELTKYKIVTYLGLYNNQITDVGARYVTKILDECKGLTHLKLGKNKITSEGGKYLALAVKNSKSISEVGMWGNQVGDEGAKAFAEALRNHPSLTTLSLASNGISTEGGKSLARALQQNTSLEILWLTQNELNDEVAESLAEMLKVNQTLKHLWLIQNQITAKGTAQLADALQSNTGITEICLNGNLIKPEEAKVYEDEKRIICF

EC50 [1]: 10 µM (active)
Structure (SMILES): O=C(COc1ccc(F)cc1Cl)N[C@@H]1CCCN(Cc2ccccc2)C1

Structure (SMILES): O=C(Nc1ccc(S(=O)(=O)Nc2ccccc2)cc1)c1ccc(CN2CCOCC2)cc1
EC50 (Ion channel NompC): > 29.9 µM (inactive)
EC50 (Mucolipin-3): > 29.9 µM (not active)
IC50 [2]: 48.1 µM (inactive)

IC50 [3]: > 25 µM (inactive)
IC50 [4]: > 25 µM (inactive)
IC50 [5]: > 25 µM (inactive)
IC50 [6]: 9.5 µM (active)
Structure (SMILES): Cc1cccc(Cl)c1NC(=O)c1ccc(-c2cc(Cl)ccc2Cl)o1

Structure (SMILES): COc1ccc(N/N=C(\C=N\O)C(=O)c2ccc(OC)cc2)cc1
EC50 (BJ [7]): 2.41 µM (inconclusive)
EC50 (BJ [8]): 49 µM (active)
Absolute IC50 (CHOP) [9]: 10 µM
EC50 (BJ [10]): 1.56 µM (inconclusive)
AC50 [11]: 0.009 µM (active)
EC50 [12]: 1.15 µM (active)

Structure (SMILES): CC(C)C(=O)N(C)C(c1ccccc1)c1c[nH]c2ccccc12 (stereo not drawn)
IC50 (HEK293): > 20 µM (inactive)
IC50 [13]: > 20 µM (inactive)
IC50 (Tumor necrosis factor): > 20 µM (inactive)
IC50 [14]: > 20 µM (inactive)
